# Experiments:
# [1] = system: Immunoglobulin-G1 mediated bronchoconstriction reaction; test: Action on immunoglobulin-G1 mediated bronchoconstriction reaction in guinea pigs; type: in vivo, Hartley guinea pigs; conditions: Cavia porcellus; 20 mg/kg oral, 1 hour before antigen
# Method: Action on the Immunoglobulin-G1 Mediated Bronchoconstriction Reaction in Guinea Pigs
# In accordance with the method of Orange and Moore (Orange, R. P. and Moore E. G. , J. Immunol., 116, 392-397, 1976), female and male Hartley guinea pigs weighing about 350 g were sensitized by intraperitoneal application of an emulsion (1 ml) composed of egg albumin (1 mg) and Freund's complete adjuvant (produced by Wako Pure-Chemical Industries, Ltd. of Japan). 3 Weeks after the sensitization, a serum antibody level in the sensitized guinea pigs was measured by means of the 3-hours passive cutaneous anaphylaxis (PCA) reaction in guinea pigs. […] The broncoconstriction reaction resulting from the antigen-antibody reaction was measured in accordance with the Konzett-Rossler method (Konzett, H. and Rossler, R., Naunyn-Schmiedeberg'ss Arch. exp. Path. pharmak., 195, 71-74, 1940). The guinea pigs were fixed on the dorsal position under anesthesia with a urethane (1.5 g/kg given intraperitonealy). An incision was made through the trachea, which was connected to an artificial respirator (manufactured by Harvard Co.) through an endotracheal tube, with a side tube of the endotracheal tube being attached to a brochoconstricting transducer (type 7020, manufactured by Ugobasile Co.). While an air volume per ventilation was adjusted to 5 to 7 ml and an air ventilation rate was controlled at 70 times/min., with a load pressure to the lung set at 10 cm H2 O, the overflown air volume was recorded on Rectigraphy-8S (manufactured by Sanei Sokki Inc. of Japan) through a transducer. After 1 mg/kg of gallamine triethiodide was given intravenously to the animals, 1 mg/kg of antigen, egg albumin dissolved in physiological saline, was applied intravenously to induce a brochoconstriction reaction. The bronchconstriction reaction was recorded for the period of time of 15 minutes. A drug was suspended in 5% gum arabic solution, and given orally 1 hour before the application of the antigen. Percent inhibition of the immunoglobuin G1 mediated bronchoconstriction reaction in guinea pigs are shown below in Table 3.
# [2] = system: experimental cerebral infarction model of Mongolian gerbils; test: Anti-edema action in an experimental cerebral infarction model of Mongolian gerbil; type: in vivo; conditions: oral, 1 hour before carotid ligation
# Method: Anti-Edema Action in an Experimental Cerebral Infarction Model of Mongolian Gerbil
# Male Monglian gerbils (8-10 weeks of age) were used. Under light ether anesthesia, the right common carotid artery was ligated for 1 hour to induce experimental cerebral infarction, and then reperfused on removing the ligature. One hour after reperfusion, the animal was guillotined, the brain was excised, and divided into the left and right brain hemispheres. The wet weight of each hemisphere was determined, and then the dry weight was determined after drying for 24 hours at 96° C. The water content (%) of each hemisphere was estimated according to the following equation. [formula] In addition, neurological deficit symptoms were observed during ligation-and-reperfusion periods.
# Test drugs were orally administered as a gum arabic suspension 1 hour before the common carotid artery ligation under an unanesthetized condition. Results
# 5-Lipoxygenase = target: T1, 5-Lipoxygenase (Rattus norvegicus, UniProt P12527); test: 5-Lipoxygenase inhibitory activity: 5-HETE production in RBL-1 cells (HPLC); type: cell-based, rat (RBL-1, rat basophilic leukemia cells); conditions: arachidonic acid + A 23187, 37° C., 20 minutes, read-out: 5-HETE production inhibiting effect (IC50)
# T1 construct: endogenous in cells; host or cells: RBL-1 (rat basophilic leukemia cells)
# T1 sequence (P12527 1-673): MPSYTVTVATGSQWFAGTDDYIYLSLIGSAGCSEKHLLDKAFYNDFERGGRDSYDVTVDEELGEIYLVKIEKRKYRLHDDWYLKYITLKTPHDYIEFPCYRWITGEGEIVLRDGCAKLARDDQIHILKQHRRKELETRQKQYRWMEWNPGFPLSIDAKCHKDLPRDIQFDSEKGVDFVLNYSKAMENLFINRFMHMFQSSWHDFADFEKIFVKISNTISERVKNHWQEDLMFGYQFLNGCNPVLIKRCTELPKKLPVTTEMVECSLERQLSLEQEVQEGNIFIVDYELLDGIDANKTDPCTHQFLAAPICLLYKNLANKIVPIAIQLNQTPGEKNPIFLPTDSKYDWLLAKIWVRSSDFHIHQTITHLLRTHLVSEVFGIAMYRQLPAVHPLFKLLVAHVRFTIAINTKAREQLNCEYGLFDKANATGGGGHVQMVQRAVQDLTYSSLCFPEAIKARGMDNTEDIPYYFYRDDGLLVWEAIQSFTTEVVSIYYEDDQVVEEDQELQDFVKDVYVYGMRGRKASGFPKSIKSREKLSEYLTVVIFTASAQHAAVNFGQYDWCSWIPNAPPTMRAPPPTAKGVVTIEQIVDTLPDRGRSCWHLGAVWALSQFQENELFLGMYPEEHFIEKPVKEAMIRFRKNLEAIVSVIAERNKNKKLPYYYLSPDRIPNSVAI
# Method: 5-Lipoxygenase Inhibitory Activity
# 10^7 RBL-1 cells (rat basophilic leukemia cells) were suspended in 0.5 ml of MCM (mast cell medium), and test solutions (made up of 0.5 ml of MCM, 50 μg of arachidonic acid, 10 μg of A 23187 (calcium ionophore, Eli Lilly) and 1 μM, 0.1 μM, 0.01 μM and0.001 μM as the final concentration of the quinone compound, respectively) prepared previously were added respectively to the suspension, followed by reaction at 37° C. for 20 minutes. After the conclusion of the reaction, 4 ml of ethanol and 1,4-dimethoxy-2-methyl-3-(3-methoxypropyl)naphthalene as the internal reference drug were added to the reaction solution, and the mixture was shaken thoroughly and allowed to stand at room temperature for 10 minutes. Then, it was centrifuged (2000 r.p.m.) for 10 minutes, and the supernatant fluid was separated and concentrated to dryness under reduced pressure. 0.5 Milliliter of 60% aqueous methanol was added to the concentrate, and 100 μl of the resulting solution was taken and subjected to high-performance liquid chromatography to determine amount of 5-HETE (5-hydroxyeicosatetraenoic acid). Determination of 5-HETE was made through measurement of an absorption at 237 nm with a UV absorption monitor.
# The 5-HETE production inhibitory effect (IE) was expressed by [formula] wherein a is a peak height or peak area corrected by the peak for the internal reference when the quinone compound is not contained; b is a peak height or peak area corrected by the peak for the internal reference when the quinone compound is contained.
# [3] = system: PAF-induced bronchoconstriction; test: Effect on PAF-induced bronchoconstriction in guinea pigs; type: in vivo; conditions: one hour before PAF
# Method: Platelet Activating Factor (PAF)-Induced Bronchoconstriction in Guinea Pigs
# Experimental procedure in this experiment was the same as that in LTD4 -induced bronchoconstriction shown in Experimental example 7. PAF is an intraveneous dose of 1 μg/kg was used. Each specimen suspended in a 5% gum arabic solution was given orally one hour before the PAF administration.
# mice of ICR breed = type: in vivo; conditions: 1000 mg/kg oral, male ICR mice, 7 days
# Excerpt: Acute Toxicity Test in Mice (Acute Toxicity)
# 1000 Milligrams per kilogram of each set specimen was applied orally to groups of 5 five-weeks old male mice of ICR breed, and a number of dead animals observed for the 7-days period was counted.
SMILES,inhibition in vivo at 20 mg/kg [1],Incidence of appearance of neurological deficit symptoms ([2]; control 5/6),"Water content, normal side (left) ([2]; control 80.1 ± 0.3)","Water content, infarct side (right) ([2]; control 81.3 ± 0.9)",IC50 (5-Lipoxygenase),% Inhibition of PAF-induced bronchoconstriction ([3]; 0.313 mg/kg oral),% Inhibition of PAF-induced bronchoconstriction ([3]; 1.25 mg/kg oral),% Inhibition of PAF-induced bronchoconstriction ([3]; 5 mg/kg oral),Acute toxicity (number of dead animals/number of animals used) (mice of ICR breed),% Inhibition of PAF-induced bronchoconstriction ([3]; 0.08 mg/kg oral)
"CC1=C(C)C(=O)C(C(CCCCCC(=O)O)c2ccccc2)=C(C)C1=O (centres unmarked) [Compound No. 50, 7-(3,5,6-trimethyl-1,4-benzoquinon-2-yl)-7-phenylheptanoic acid]",76%,1/6,79.8 ± 1.0%,80.3 ± 1.0%,28 nM,66%,94%,85%,,
CC1=C(C)C(=O)C(C(CCCCCC(=O)O)c2ccc(C)cc2)=C(C)C1=O (centres unmarked) [Compound No. 93],83%,,,,90 nM,87%,70%,,0/5,58%

# Source: patent publication US5180742A, “Quinone derivatives, their production and use” (Takeda Chemical Industries, Ltd., priority 1984, dated 1993)
